Experimental data taken from patent US20180021323A1, “FLIP - A SELECTIVE MOLECULAR TARGET OF SENESCENT CELLS” (BIOVENTURES, LLC, priority 2015, published 2018).

Key:
[1] = tested on: IR-induced senescent (SC) WI38 cells; assay: Cell viability of IR-induced senescent (SC) WI38 cells, 72 h treatment; type: cell-based, human; details: for LD50 (SC): IR-induced senescent (SC) WI38 cells, viable cells determined 72 h after treatment; for killing of IR-induced senescent (SC) WI38 cells (viable cells, % of vehicle control): increasing concentrations, 72 h
Description: (§1) The expression of FLIP in normal (NC) and IR-induced senescent (SC) WI38 cells was determined by Western blot 24 h after they were treated with vehicle (VEH) or Drox (10 μM). Treatment with droxinostat (Drox) down-regulates the expression of FLIP mRNA in IR-induced senescent (SC) WI38 cells (FIG. 3B). IR-induced senescent (SC) WI38 cells were treated with vehicle (VEH) or Drox (10 μM) for 6 h and the expression of FLIP mRNA in these cells was determined by qPCR. […] Viable cells were determined 72 h after normal (NC) and IR-induced senescent (SC) WI38 cells were treated with vehicle (VEH) or increasing concentrations of Drox. The data are presented as a percentage of control cells treated with VEH. Treatment with droxinostat (Drox), piperlongumine (PL) and EF-24 down-regulates the expression of FLIP in IR-induced senescent (SC) WI38 cells (FIG. 3E). Normal (NC) and IR-induced senescent (SC) WI38 cells were treated with vehicle (VEH), Drox (10 μM), PL (10 μM), and EF-24 (10 μM) for 24 h and the expression of FLIP in these cells was determined by Western blots. […] Viable cells were determined 72 h after normal (NC) and IR-induced senescent (SC) WI38 cells were treated with vehicle (VEH) or increasing concentrations of Drox, PL, and EF-24. LD50 values for these molecules against NC and SC were calculated and presented.

FLIP = FLIP protein expression by Western blot in IR-induced senescent WI38 cells; type: cell-based, human; details: 10 μM, 24 h
Excerpt: Treatment with doxycycoline (DOX) dose-dependently induces FLIP-shRNA expression in WI38 cell line after the cells were stably transfected with a plasmid containing FLIP-shRNA and red fluorescent protein (RFP) genes (FIG. 2A). Induction of FLIP-shRNA by doxycycoline down-regulates FLIP expression in IR-induced senescent WI38 cells stably transfected with FLIP-shRNA but not in vector transfected cells (FIG. 2B).
as §1

normal (NC) WI38 cells = assay: Cell viability of normal (NC) WI38 cells, 72 h treatment; type: cell-based; details: for LD50 (NC): normal (NC) WI38 cells, viable cells determined 72 h after treatment
Description: as §1, with “Treatment with droxinostat (Drox) down-regulates the expression of FLIP mRNA in IR-induced senescent (SC) WI38 cells (FIG. 3B).” left out, “Treatment with droxinostat (Drox), piperlongumine (PL) and EF-24 down-regulates the expression of FLIP in IR-induced senescent (SC) WI38 cells (FIG. 3E).” left out

FLIP mRNA = FLIP mRNA expression by qPCR in IR-induced senescent WI38 cells; type: cell-based, human; details: 10 μM, 6 h
Description: as §1

SMILES	LD50 (SC) [1] [µM]	killing of IR-induced senescent (SC) WI38 cells (viable cells, % of vehicle control) [1]	expression of FLIP (Western blot, FIG. 3A) (FLIP)	expression of FLIP (Western blot, FIG. 3E) (FLIP)	effect on normal (NC) WI38 cells (viable cells, % of vehicle control) (normal (NC) WI38 cells; increasing concentrations, 72 h)	LD50 (NC) (normal (NC) WI38 cells) [µM]	expression of FLIP mRNA (qPCR, FIG. 3B) (FLIP mRNA)
Cc1cc(Cl)ccc1OCCCC(=O)NO [Droxinostat, 4-(4-chloro-2-methylphenoxy)-N-hydroxybutanamide]	8.26	selectively kill	down-regulated	down-regulates	minimal effect	39.58	down-regulates
COc1cc(/C=C/C(=O)N2CCC=CC2=O)cc(OC)c1OC [Piperlongumine, piperlongumine]	7.05	selectively kill		down-regulates		24.25	
O=C1/C(=C/c2ccccc2F)CNC/C1=C\c1ccccc1F [EF-24]	1.05	selectively kill		down-regulates		6.08	
